Reference: patent publication US20260271931A1, “HERBICIDAL MIXTURES” (Bayer Aktiengesellschaft, priority 2023, published 2026)
Like-named read-outs stand apart in the source and are kept apart here.

How the values were obtained:
Assay type in all cases: in vivo
Bidens pilosa (BIDPI) = test: Post-emergence action against weeds, greenhouse pot test, visual rating: Bidens pilosa
[1] = system: Brachiaria platyfylla (BRAPP); test: Post-emergence action against weeds, greenhouse pot test, visual rating: Brachiaria platyfylla; details: for pest or weed control at 0.4 g/ha: 0.4 g a.i./ha; for pest or weed control at 3 g/ha: 3 g a.i./ha
Procedure: (§1) When the observed efficacies already exceed the formal sum total of the values of the tests with individual applications, they also exceed the expected value according to Colby, which is calculated using the formula below and is likewise regarded as an indication of synergism (cf. S. R. Colby; in Weeds 15 (1967) pp. 20 to 22):
(§2) where: • A=efficacy of the active ingredient (A) in % at an application rate of a [g a.i./ha]; • B=efficacy of the active ingredient (B) in % at an application rate of b [g a.i./ha]; • E^C=expected value of the effect of the combination (A)+(B) in % at the combined application rate a+b [g a.i./ha].
(§3) The observed values (E^A) from the experiments, given suitable low dosages, show an effect of the combinations exceeding the expected values according to Colby (E^C) (Δ).
(§4) Seeds of mono- and dicotyledonous weeds were placed in sandy loam in pots, covered with soil and grown in a greenhouse under good growth conditions (temperature, air humidity, water supply). Two to three weeks after sowing, the test plants were treated at the two- to four-leaf stage with the compositions of the invention. The compositions of the invention, formulated as spray powders or as emulsion concentrates, were sprayed onto the green parts of the plant in various dosages with an application rate equivalent to […] of water. After the test plants had been kept in the greenhouse under optimum growth conditions for 3 weeks, the activity of the preparations was rated visually in comparison to untreated controls.
(§5) 100% efficacy means complete control of the particular weed tested.
(§6) 0% efficacy means zero control of the particular weed tested.
(§7) Expected values according to Colby are reported under E.
(§8) The exceedance of the expected value E is given as Δ (=synergistic effect).
(§9) The rating period is reported in days after application (DAT).

Eleusine indica (ELEIN) = test: Post-emergence action against weeds, greenhouse pot test, visual rating: Eleusine indica; details: for pest or weed control at 0.4 g/ha: 0.4 g a.i./ha
Procedure: as §1, §2, §3, §4, §5, §6, §7, §8, §9

Lolium rigidum (LOLRI) = test: Post-emergence action against weeds, greenhouse pot test, visual rating: Lolium rigidum
Avena fatua (AVEFA) = test: Post-emergence action against weeds, greenhouse pot test, visual rating: Avena fatua; details: 10 DAT
Kochia scoparia (KCHSC) = test: Post-emergence action against weeds, greenhouse pot test, visual rating: Kochia scoparia
[2] = system: Pharbitis purpurea (PHBPU); test: Post-emergence action against weeds, greenhouse pot test, visual rating: Pharbitis purpurea
Procedure: as §1, §2, §3, §4, §5, §6, §7, §8, §9

Centaurea cyanus (CENCY) [3] = test: Post-emergence action against weeds, greenhouse pot test, visual rating: Centaurea cyanus
Procedure: as §1, §2, §3, §4, §5, §6, §7, §8, §9

[4] = system: Sorghum halepense (SORHA); test: Post-emergence action against weeds, greenhouse pot test, visual rating: Sorghum halepense
Procedure: as §1, §2, §3, §4, §5, §6, §7, §8, §9

[5] = system: Echinochloa crus-galli (ECHCG); test: Post-emergence action against weeds, greenhouse pot test, visual rating: Echinochloa crus-galli
Centaurea cyanus (CENCY) [6] = test: Post-emergence action against weeds, greenhouse pot test, visual rating: Centaurea cyanus; details: 240 h, read-out: Herbicidal effect [%] on CENCY 10 DAT
[7] = post-emergence, 240 h, read-out: Herbicidal effect [%] on BRAPP 10 DAT
[8] = post-emergence, 504 h, read-out: Herbicidal effect [%] on BRAPP 21 DAT
[9] = Eleusine indica, post-emergence, 504 h, read-out: Herbicidal effect [%] on ELEIN 21 DAT

CCc1cccc(C)c1N(C(=O)CCl)[C@@H](C)COC [S-Metolachlor, S-metolachlor]
Herbicidal effect [%] on BIDPI 21 DAT (Bidens pilosa (BIDPI); 50 g a.i./ha): 20%
Herbicidal effect [%] on BRAPP 10 DAT ([1]; 50 g a.i./ha): 30%
Herbicidal effect [%] on BRAPP 21 DAT ([1]; 50 g a.i./ha): 30%
Herbicidal effect [%] on ELEIN 10 DAT (Eleusine indica (ELEIN); 50 g a.i./ha): 10%
Herbicidal effect [%] on ELEIN 21 DAT (Eleusine indica (ELEIN); 50 g a.i./ha): 10%
Herbicidal effect [%] on LOLRI 21 DAT (Lolium rigidum (LOLRI); 50 g a.i./ha, 21 DAT): 0%
Herbicidal effect [%] on AVEFA 10 DAT (Avena fatua (AVEFA); 50 g a.i./ha): 10%
Herbicidal effect [%] on KCHSC 21 DAT (Kochia scoparia (KCHSC); 50 g a.i./ha): 10%
Herbicidal effect [%] on PHBPU 21 DAT ([2]; 50 g a.i./ha): 10%
Herbicidal effect [%] on CENCY 10 DAT (Centaurea cyanus (CENCY) [3]; 50 g a.i./ha): 0%
Herbicidal effect [%] on CENCY 21 DAT (Centaurea cyanus (CENCY) [3]; 50 g a.i./ha): 10%
Herbicidal effect [%] on SORHA 10 DAT ([4]; 50 g a.i./ha): 10%
Herbicidal effect [%] on SORHA 21 DAT ([4]; 50 g a.i./ha): 10%
Herbicidal effect [%] on ECHCG 21 DAT ([5]; 50 g a.i./ha): 30%

CC(C)N(C)S(=O)(=O)NC(=O)c1cc(-n2c(=O)cc(C(F)(F)F)n(C)c2=O)c(F)cc1Cl [Saflufenacil, saflufenacil]
pest or weed control at 0.4 g/ha [1, 7]: 10%
pest or weed control at 0.4 g/ha [1, 8]: 0%
pest or weed control at 0.4 g/ha (Eleusine indica (ELEIN); Eleusine indica, post-emergence, 240 h, read-out: Herbicidal effect [%] on ELEIN 10 DAT): 30%
pest or weed control at 0.4 g/ha (Eleusine indica (ELEIN); [9]): 0%
Herbicidal effect [%] on LOLRI 10 DAT (Lolium rigidum (LOLRI); 0.4 g a.i./ha, 10 DAT): 10%
pest or weed control at 0.4 g/ha (Lolium rigidum (LOLRI); Lolium rigidum, 504 h, 0.4 g a.i./ha, 21 DAT, read-out: Herbicidal effect [%] on LOLRI 21 DAT): 0%
pest or weed control at 0.4 g/ha (Avena fatua (AVEFA); Avena fatua, 240 h, 0.4 g a.i./ha, read-out: Herbicidal effect [%] on AVEFA 10 DAT): 10%
Herbicidal effect [%] on KCHSC 10 DAT (Kochia scoparia (KCHSC); 0.4 g a.i./ha): 10%
pest or weed control at 0.4 g/ha (Kochia scoparia (KCHSC); Bassia scoparia, post-emergence, 504 h, 0.4 g a.i./ha, read-out: Herbicidal effect [%] on KCHSC 21 DAT): 10%
pest or weed control at 0.4 g/ha (Centaurea cyanus (CENCY) [6]; 0.4 g a.i./ha): 40%
Herbicidal effect [%] on PHBPU 21 DAT ([2]; 0.4 g a.i./ha): 80%
Herbicidal effect [%] on CENCY 21 DAT (Centaurea cyanus (CENCY) [3]; 0.4 g a.i./ha): 30%

CSc1nnc(C(C)(C)C)c(=O)n1N [Metribuzin, metribuzin]
pest or weed control at 15 g/ha (Eleusine indica (ELEIN); Eleusine indica, post-emergence, 504 h, 15 g a.i./ha, read-out: Herbicidal effect [%] on ELEIN 21 DAT): 10%
pest or weed control at 15 g/ha (Lolium rigidum (LOLRI); Lolium rigidum, 504 h, 15 g a.i./ha, 21 DAT, read-out: Herbicidal effect [%] on LOLRI 21 DAT): 0%
pest or weed control at 15 g/ha (Centaurea cyanus (CENCY) [6]; 15 g a.i./ha): 0%
Herbicidal effect [%] on PHBPU 10 DAT ([2]; 15 g a.i./ha): 0%

CCOC(=O)COc1cc(-c2nn(C)c(OC(F)F)c2Cl)c(F)cc1Cl [Pyraflufen-ethyl, pyraflufen-ethyl]
Herbicidal effect [%] on BIDPI 10 DAT (Bidens pilosa (BIDPI); 7.5 g a.i./ha): 88%
Herbicidal effect [%] on BIDPI 21 DAT (Bidens pilosa (BIDPI); 7.5 g a.i./ha): 80%
pest or weed control at […] (Eleusine indica (ELEIN); [9]): 0%
pest or weed control at […] (Centaurea cyanus (CENCY) [6]): 88%
Herbicidal effect [%] on CENCY 21 DAT (Centaurea cyanus (CENCY) [3]; 7.5 g a.i./ha): 88%
Herbicidal effect [%] on SORHA 21 DAT ([4]; 7.5 g a.i./ha): 10%

N#Cc1cc(Br)c(O)c(Br)c1 [Bromoxynil, bromoxynil]
Herbicidal effect [%] on BIDPI 10 DAT (Bidens pilosa (BIDPI); 80 g a.i./ha): 50%
pest or weed control at 80 g/ha (Eleusine indica (ELEIN); Eleusine indica, post-emergence, 240 h, 80 g a.i./ha, read-out: Herbicidal effect [%] on ELEIN 10 DAT): 0%
pest or weed control at 80 g/ha (Avena fatua (AVEFA); Avena fatua, 240 h, 80 g a.i./ha, read-out: Herbicidal effect [%] on AVEFA 10 DAT): 0%
pest or weed control at 80 g/ha (Centaurea cyanus (CENCY) [6]; 80 g a.i./ha): 30%
Herbicidal effect [%] on PHBPU 10 DAT ([2]; 80 g a.i./ha): 50%

CS(=O)(=O)c1ccc(C(=O)C2C(=O)CCCC2=O)c(Cl)c1COCC(F)(F)F [Tembotrione, tembotrione]
Herbicidal effect [%] on BIDPI 21 DAT (Bidens pilosa (BIDPI); 3 g a.i./ha): 30%
pest or weed control at 3 g/ha [1, 7]: 40%
pest or weed control at 3 g/ha [1, 8]: 20%
pest or weed control at 3 g/ha (Eleusine indica (ELEIN); Eleusine indica, post-emergence, 240 h, 3 g a.i./ha, read-out: Herbicidal effect [%] on ELEIN 10 DAT): 60%
pest or weed control at 3 g/ha (Eleusine indica (ELEIN); Eleusine indica, post-emergence, 504 h, 3 g a.i./ha, read-out: Herbicidal effect [%] on ELEIN 21 DAT): 40%
pest or weed control at 3 g/ha (Lolium rigidum (LOLRI); Lolium rigidum, 504 h, 3 g a.i./ha, 21 DAT, read-out: Herbicidal effect [%] on LOLRI 21 DAT): 20%
Herbicidal effect [%] on KCHSC 10 DAT (Kochia scoparia (KCHSC); 3 g a.i./ha): 20%
pest or weed control at 3 g/ha (Kochia scoparia (KCHSC); Bassia scoparia, post-emergence, 504 h, 3 g a.i./ha, read-out: Herbicidal effect [%] on KCHSC 21 DAT): 10%
pest or weed control at 3 g/ha (Centaurea cyanus (CENCY) [6]; 3 g a.i./ha): 40%
Herbicidal effect [%] on PHBPU 21 DAT ([2]; 3 g a.i./ha): 30%
Herbicidal effect [%] on CENCY 21 DAT (Centaurea cyanus (CENCY) [3]; 3 g a.i./ha): 30%
Herbicidal effect [%] on SORHA 10 DAT ([4]; 3 g a.i./ha): 80%
Herbicidal effect [%] on SORHA 21 DAT ([4]; 3 g a.i./ha): 20%

Cc1ccc2c(c1)[C@H](Nc1nc(N)nc(C(C)F)n1)[C@@H](C)C2 (stereo partly shown) [Indaziflam, indaziflam]
Herbicidal effect [%] on BIDPI 21 DAT (Bidens pilosa (BIDPI); 3 g a.i./ha): 30%
Herbicidal effect [%] on ELEIN 21 DAT (Eleusine indica (ELEIN); 3 g a.i./ha): 10%
Herbicidal effect [%] on LOLRI 21 DAT (Lolium rigidum (LOLRI); 3 g a.i./ha, 21 DAT): 0%
Herbicidal effect [%] on AVEFA 10 DAT (Avena fatua (AVEFA); 3 g a.i./ha): 0%
Herbicidal effect [%] on KCHSC 10 DAT (Kochia scoparia (KCHSC); 3 g a.i./ha): 10%
Herbicidal effect [%] on KCHSC 21 DAT (Kochia scoparia (KCHSC); 3 g a.i./ha): 20%
Herbicidal effect [%] on CENCY 10 DAT (Centaurea cyanus (CENCY) [3]; 3 g a.i./ha): 20%
Herbicidal effect [%] on CENCY 21 DAT (Centaurea cyanus (CENCY) [3]; 3 g a.i./ha): 10%
Herbicidal effect [%] on SORHA 21 DAT ([4]; 3 g a.i./ha): 10%
Herbicidal effect [%] on ECHCG 10 DAT ([5]; 3 g a.i./ha): 0%

CS(=O)(=O)NC(=O)c1cc(Oc2ccc(C(F)(F)F)cc2Cl)ccc1[N+](=O)[O-] [Fomesafen, fomesafen]
Herbicidal effect [%] on BIDPI 10 DAT (Bidens pilosa (BIDPI); 1.5 g a.i./ha): 30%
Herbicidal effect [%] on BIDPI 21 DAT (Bidens pilosa (BIDPI); 1.5 g a.i./ha): 20%
pest or weed control at […] ([1]; post-emergence, 504 h, 1.5 g a.i./ha, read-out: Herbicidal effect [%] on BRAPP 21 DAT): 0%
pest or weed control at […] (Eleusine indica (ELEIN); Eleusine indica, post-emergence, 504 h, 1.5 g a.i./ha, read-out: Herbicidal effect [%] on ELEIN 21 DAT): 0%
pest or weed control at […] (Lolium rigidum (LOLRI); Lolium rigidum, 504 h, 1.5 g a.i./ha, 21 DAT, read-out: Herbicidal effect [%] on LOLRI 21 DAT): 0%
Herbicidal effect [%] on KCHSC 10 DAT (Kochia scoparia (KCHSC); 1.5 g a.i./ha): 10%
pest or weed control at […] (Kochia scoparia (KCHSC); Bassia scoparia, post-emergence, 504 h, 1.5 g a.i./ha, read-out: Herbicidal effect [%] on KCHSC 21 DAT): 0%
pest or weed control at […] (Centaurea cyanus (CENCY) [6]; 1.5 g a.i./ha): 20%
Herbicidal effect [%] on CENCY 21 DAT (Centaurea cyanus (CENCY) [3]; 1.5 g a.i./ha): 30%

CCC(CC)Nc1c([N+](=O)[O-])cc(C)c(C)c1[N+](=O)[O-] [Pendimethalin, pendimethalin]
pest or weed control at 100 g/ha (Eleusine indica (ELEIN); Eleusine indica, post-emergence, 504 h, 100 g a.i./ha, read-out: Herbicidal effect [%] on ELEIN 21 DAT): 0%
pest or weed control at 100 g/ha (Kochia scoparia (KCHSC); Bassia scoparia, post-emergence, 504 h, 100 g a.i./ha, read-out: Herbicidal effect [%] on KCHSC 21 DAT): 10%
pest or weed control at 100 g/ha (Centaurea cyanus (CENCY) [6]; 100 g a.i./ha): 0%
